Read-outs that look alike come from different tables or passages of the source.
Experiments:
[1] = system: mouse (MC3T3-E1) and human (TE-85) osteoblast-line cells; format: cell-based
Summary of the method: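 MC3T3-E1 or TE-85 cells were plated overnight in DMEM/25 mM HEPES/10% FBS and then preincubated 24 h in 0.1% FBS. Compounds were added for 20 h, followed by a 4 h pulse of 0.4 μCi ^3H-thymidine. Incorporated radioactivity served as the proliferation index, expressed as % of control (control = 100%).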

[2] = system: Human T47D breast carcinoma cells; assay: Ex vivo progestational test (T47D proliferation); format: cell-based; settings: SC200, 3H-thymidine incorporation
Protocol: The progestational activity of the compounds was accessed by their ability to stimulate proliferation of human breast carcinoma cells. Proliferation was measured as the ability to stimulate ^3 H-thymidine incorporation into these cells in vitro. Human T47D breast carcinoma cells (American Type Tissue Collection #133-HTB) were maintained in media consisting or RPMI 1640 supplemented with 10% fetal bovine serum, 10 ug/ml insulin, 10 U/ml pennicillin, 100 ug/ml streptomycin, and 2 mM L-glutamine. Monolayer cell cultures were trypsinized and washed in assay media consisting of phenol red-free RPMI 1640 supplemented with 5% charcoal-stripped, fetal bovine serum, and the other ingredients listed above. Cells were then plated in a 96-well plate. After a 48-hour incubation period at 37° C., the conditioned media was removed and replaced with fresh media containing test compounds in DMSO (0.1% DMSO final concentration). The cell cultures were incubated for 18 to 20 hours at 37° C. ^3 H-thymidine was then added to each well and the cell cultures were incubated at 37° C. for an additional 4 hours. Labelling was stopped by addition of un labelled thymidine. The cultures were washed twice, trypsinized and then harvested onto a filter mat. Incorporated ^3 -H-thymidine was measured by liquid scintillation counting. Data was expressed as a percent stimulation above control level which was set at 100%. An SC200 value was calculated as the concentration of test material needed to stimulate ^3 H-thymidine incorporation 200% of control.
Aspects of the application of the procedure used are described in the following: C. Christensen, D. Gunter, D. Saunders and V. Malviya, Gynecol. Oncol., 28, 25 (1987); J. Puzas, R. Drivdahl, G. Howard and D. Baylink, Proc. Soc. Exp. Biol. Med., 166, 113 (1981); and I. Keydar, L. Chen, S. Karby, F. Weiss, J. Delarea, M. Raduy, S. Chaitcik and H. Brenner, Eur. J. Cancer, 15, 659 (1979)

[3] = molecular target: T1, progestin receptor from rabbit uterus (Oryctolagus cuniculus, UniProt P06186); assay: Progestin receptor binding (3H-R5020 displacement); settings: rabbit uterine cytosol, 4° C., 18 h, read-out: IC50: Binding affinity for the progestin receptor from rabbit uterus
T1 construct: Cytosolic progestin receptor were obtained by mixing rabbit uterine tissue with a Tris buffer; from tissue; host or cells: rabbit uterus cytosol
Summary of the method: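 Rabbit uterine cytosol in Tris buffer pH 7.4 with EDTA, DTT and molybdate was incubated with 3H-R5020 and test compound (5% DMSO final) at 4 °C for about 18 h. Bound ligand was separated with dextran-coated charcoal and counted by scintillation; IC50 is 50% radioligand displacement, with nonspecific binding defined by excess unlabelled ligand.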

rabbit endometrium = assay: In vivo progestational test (Clauberg Test); set-up: species or system rabbit (immature New Zealand White female); key: Active in Clauberg Assay; Active in McGinty Assay; settings: oral or parenteral, daily for five days
Protocol: Progestational activity was also measured in vivo by the abiity to stimulate the rabbit endometrium after either oral or parenteral administration.
[…]. Starting on the 7th day, the rabbits were given the test material daily for five days. The rabbits were sacrificed approximately 24 hours after the last administration, and the uteri were excised, trimmed and weighed. Portions of both uterine horns were fixed in 10% neutral formalin, sectioned at 6μ and stained with hematoxylin and eosin. Progestational activity was assessed as described above for the McGinty Test.

T1 sequence (P06186 whole entry): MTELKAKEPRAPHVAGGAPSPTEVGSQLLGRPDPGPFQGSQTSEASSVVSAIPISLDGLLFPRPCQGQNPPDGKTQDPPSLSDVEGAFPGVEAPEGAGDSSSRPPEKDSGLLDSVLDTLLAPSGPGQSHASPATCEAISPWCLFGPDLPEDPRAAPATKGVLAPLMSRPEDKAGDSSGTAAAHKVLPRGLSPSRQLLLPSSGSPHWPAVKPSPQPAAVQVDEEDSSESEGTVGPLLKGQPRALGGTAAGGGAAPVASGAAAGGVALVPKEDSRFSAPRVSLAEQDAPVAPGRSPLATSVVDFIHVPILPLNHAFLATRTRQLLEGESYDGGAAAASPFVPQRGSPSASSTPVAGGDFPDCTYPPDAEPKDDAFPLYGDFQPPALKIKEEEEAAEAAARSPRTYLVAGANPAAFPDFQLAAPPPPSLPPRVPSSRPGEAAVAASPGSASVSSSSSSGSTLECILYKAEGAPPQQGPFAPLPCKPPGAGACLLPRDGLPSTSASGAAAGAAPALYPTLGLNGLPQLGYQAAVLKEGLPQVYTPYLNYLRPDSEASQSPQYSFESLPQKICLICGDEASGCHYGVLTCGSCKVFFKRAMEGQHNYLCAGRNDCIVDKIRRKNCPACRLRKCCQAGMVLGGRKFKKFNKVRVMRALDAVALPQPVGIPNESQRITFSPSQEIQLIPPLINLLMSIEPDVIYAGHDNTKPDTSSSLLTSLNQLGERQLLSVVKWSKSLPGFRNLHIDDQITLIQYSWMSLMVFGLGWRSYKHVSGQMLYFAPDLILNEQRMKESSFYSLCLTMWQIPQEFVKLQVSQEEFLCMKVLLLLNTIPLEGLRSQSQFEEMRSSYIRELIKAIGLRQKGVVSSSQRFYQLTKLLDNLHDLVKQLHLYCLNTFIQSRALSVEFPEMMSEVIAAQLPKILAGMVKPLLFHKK

Compound | Osteoblast Cell Proliferation, 3H-thymidine incorporation vs control (100%) ([1]; 10^-6) [%] | Osteoblast Cell Proliferation, 3H-thymidine incorporation vs control (100%) ([1]; 10^-7) [%] | Osteoblast Cell Proliferation, 3H-thymidine incorporation vs control (100%) ([1]; 10^-8) [%] | Osteoblast Cell Proliferation, 3H-thymidine incorporation vs control (100%) ([1]; 10^-9) [%] | Osteoblast Cell Proliferation, 3H-thymidine incorporation vs control (100%) ([1]; 10^-10) [%] | T47D: Concentration to elicit a 200% increase in T47D Human breast cell proliferation [2] | IC50 [3] [nM] | In-vivo: Active in Clauberg Assay (rabbit endometrium)
O=S(=O)(c1cccc2ccccc12)N1CCCC(c2ccc(Cl)cc2)=N1 [Compound 15] | 94 | 108 | 114 | 123 | 123 | 10000 |  | 
O=S(=O)(c1cc(Cl)ccc1Cl)N1CCCC(c2ccc(Cl)c(Cl)c2)=N1 [Compound 22, 3-(3,4-dichlorophenyl)-1-(2,5-dichlorobenzenesulphonyl)-1,4,5,6-tetrahydropyridazine] | 86 | 78 | 66 | 59 | 40 | 10000 | 0.54 | 
CCCCc1ccc(C2=NN(S(=O)(=O)c3cc(Cl)ccc3Cl)CCC2)cc1 [Compound 69] |  |  |  |  |  | 10000 | 10000 | 
CCCCc1ccc(C2=NN(S(=O)(=O)c3ccc(Cl)cc3)CCC2)cc1 [Compound 73] |  |  |  |  |  | 10000 | 10000 | 
CCCCc1ccc(C2=NN(S(=O)(=O)c3ccc(C)cc3)CCC2)cc1 [Compound 74] |  |  |  |  |  | 10000 | 10000 | 
O=S(=O)(c1cc(Cl)ccc1Cl)N1CCCC(c2ccc(Cl)c(C(F)(F)F)c2)=N1 [Compound 79, 3-(4-chloro-3-trifluoromethylphenyl)-1-(2,5-dichlorobenzenesulphonyl)-1,4,5,6-tetrahydropyridazine] |  |  |  |  |  | 10000 | 0.9 | 
O=S(=O)(c1ccccc1)N1CCCC(c2cccc(Cl)c2)=N1 [Compound 95] |  |  |  |  |  | 10000 | 10.2 | 
O=S(=O)(c1ccc(C(F)(F)F)cc1)N1CCCC(c2ccc(Cl)c(Cl)c2)=N1 [Compound 97, 3-(3,4-dichlorophenyl)-1-(4-trifluoromethylbenzenesulphonyl)-1,4,5,6-tetrahydropyridazine] |  |  |  |  |  | 92 | 0.99 | C
O=S(=O)(c1cc(Cl)cc(Cl)c1)N1CCCC(c2ccc(Cl)c(Cl)c2)=N1 [Compound 104] |  |  |  |  |  | 76 | 0.85 | 
O=S(=O)(c1cccc(Cl)c1Cl)N1CCCC(c2ccc(Cl)c(Cl)c2)=N1 [Compound 105, 3-(3,4-dichlorophenyl)-1-(2,3-dichlorobenzenesulphonyl)-1,4,5,6-tetrahydropyridazine] |  |  |  |  |  | 1070 | 1.87 | 
O=S(=O)(c1cccc(Cl)c1)N1CCCC(c2ccc(Cl)c(Cl)c2)=N1 [Compound 109] |  |  |  |  |  | 1620 | 1.09 | 
O=[N+]([O-])c1cc(S(=O)(=O)N2CCCC(c3ccc(Cl)c(Cl)c3)=N2)ccc1Cl [Compound 111] |  |  |  |  |  | 10000 | 16 | 
O=S(=O)(c1ccc(Br)cc1)N1CCCC(c2ccc(Cl)c(C(F)(F)F)c2)=N1 [Compound 115, 3-(4-chloro-3-trifluoromethylphenyl)-1-(4-bromobenzenesulphonyl)-1,4,5,6-tetrahydropyridazine] |  |  |  |  |  | 72 | 2.09 | C
O=S(=O)(c1ccc(I)cc1)N1CCCC(c2ccc3ccccc3c2)=N1 [Compound 119, 3-(naphth-2-yl)-1-(4-iodobenzenesulphonyl)-1,4,5,6-tetrahydropyridazine] |  |  |  |  |  | 868 | 2.53 | 
Cc1ccc(S(=O)(=O)N2CCCC(c3ccc4ccccc4c3)=N2)cc1 [Compound 120] |  |  |  |  |  | 831 | 13.3 | 
O=S(=O)(c1ccc(C(F)(F)F)cc1)N1CCCC(c2ccc(Cl)c(C(F)(F)F)c2)=N1 [Compound 125, 3-(4-chloro-3-trifluoromethylphenyl)-1-(4-trifluoromethylbenzenesulphonyl)-1,4,5,6-tetrahydropyridazine] |  |  |  |  |  | 166 | 6.66 | C
O=S(=O)(/C=C/c1ccc(Cl)cc1)N1CCCC(c2ccc(Cl)c(Cl)c2)=N1 [Compound 170] | 68 | 98 | 108 | 108 | 108 | 4000 | 2.15 | 
O=S(=O)(/C=C/c1ccccc1)N1CCCC(c2ccc3ccccc3c2)=N1 [Compound 174] |  |  |  |  |  | 10000 | 22.8 | 
O=S(=O)(/C=C/c1ccc(Cl)cc1)N1CCCC(c2ccc(Cl)c(C(F)(F)F)c2)=N1 [Compound 178] |  |  |  |  |  | 164 | 5.18 | 
O=C(c1cc(Cl)cc(Cl)c1)N1CCCC(c2ccc(Cl)c(Cl)c2)=N1 [Compound 219] | 144 | 171 | 141 | 180 | 178 | 10000 | 946 | 
O=P(OC1CCCC1)(c1ccccc1)N1CCCC(c2ccc(Cl)c(Cl)c2)=N1 (centres unmarked) [Compound 257] | 86 | 114 | 122 | 112 | 114 |  | 300 | 
COP(=O)(c1ccccc1)N1CCCC(c2ccc(Cl)c(C(F)(F)F)c2)=N1 (centres unmarked) [Compound 261] | 98 | 105 | 95 | 100 | 111 |  | 131 | 
CCOP(=O)(c1ccccc1)N1CCCC(c2ccc(Cl)c(C(F)(F)F)c2)=N1 (centres unmarked) [Compound 262] | 99 | 104 | 102 | 110 | 141 |  | 958 | 
O=S(=O)(c1ccc(I)cc1)N1CCCC(c2cc(Br)c(Br)s2)=N1 [Compound 278, 3-(4,5-Dibromo-2-thienyl)-1-(4-iodobenzenesulfonyl)-1,4,5,6-tetrahydropyridazine] |  |  |  |  |  | 85 | 1 | C

From patent US5684151A, “1-arylsulphonyl, arylcarbonyl and 1-arylphosphonyl-3-phenyl-1,4,5,6-tetrahydropyridazines” (priority 1995, dated 1997)
